For 37 molecules, EC50 results are on record in patent US9353051B2, “Antiviral drugs for treatment or prevention of dengue infection” (Siga Technologies Inc., priority 2007, dated 2016).

The assay has as its system Dengue-2 (Strain New Guinea C). The experiment in a line: viral yield assay against Dengue-2 in Vero cells. It is filed as cell-based. Particulars: Dengue virus; Vero cells, MOI 0.1, harvested 48 hours post infection; read-out: Activity (anti-dengue 2 viral activity, EC50). As for the experimental part:
Compounds that were active in the primary screen were also tested for activity in viral yield assays. […] Vero cells in 12-well plates were infected with dengue-2 virus at a multiplicity of infection (MOI) of 0.1, treated with compound (or DMSO as a control), incubated at 37° C., harvested 48 hours post infection and titered on Vero cells as described above. The EC50 was calculated through ExcelFit. Those compounds with activity below 1 μM are indicated with “A”, those with activity between 1 and 10 μM are indicated with “B”, those with activity between 10 and 25 μM with “C”, and those with activity above 25 μM are indicated with “D”.

pEC50: −log10 of the molar value. A value given as a limit tells only on which side of the number the result lay.

Turning to `CC1CCCC(C)N1S(=O)(=O)c1ccc(NC(=O)Cn2cnc3sccc3c2=O)cc1` (stereo not shown) [Compound 28, N-[4-(2,6-Dimethyl-piperidine-1-sulfonyl)-phenyl]-2-(4-oxo-4H-thieno[2,3-d]pyrimidin-3-yl)-acetamide], the pEC50 is 4.60 to 5.00.

With `CCN(CC(=O)Nc1ccc(S(=O)(=O)N(CC)CC)cc1)Cc1nc2ccccc2c(=O)[nH]1` [Compound 29, N-(4-Diethylsulfamoyl-phenyl)-2-[ethyl-(4-oxo-3,4-dihydro-quinazolin-2-ylmethyl)-amino]-acetamide], the pEC50 is 4.60 to 5.00.

Take `O=C(Cn1cnc2ccccc2c1=O)Nc1ccc(S(=O)(=O)NCC(F)(F)F)cc1` [Compound 30, 2-(4-Oxo-4H-quinazolin-3-yl)-N-[4-(2,2,2-trifluoro-ethylsulfamoyl)-phenyl]-acetamide]: the pEC50 is 4.60 to 5.00. Then `O=C(Cn1cnc2ccccc2c1=O)Nc1ccc(S(=O)(=O)N2CCCC2)cc1` [Compound 31, 2-(4-Oxo-4H-quinazolin-3-yl)-N-[4-(pyrrolidine-1-sulfonyl)-phenyl]-acetamide], with below 4.60; and `O=C(Cn1cnc2ccccc2c1=O)Nc1ccc(S(=O)(=O)Nc2nccs2)cc1` [Compound 32, 2-(4-Oxo-4H-quinazolin-3-yl)-N-[4-(thiazol-2-ylsulfamoyl)-phenyl]-acetamide], with below 4.60; and `Cc1cc(C)nc(NS(=O)(=O)c2ccc(NC(=O)Cn3cnc4ccccc4c3=O)cc2)n1` [Compound 33, N-[4-(4,6-Dimethyl-pyrimidin-2-ylsulfamoyl)-phenyl]-2-(4-oxo-4H-quinazolin-3-yl)-acetamide], with below 4.60. The figure for `O=C(Cn1cnc2ccccc2c1=O)Nc1ccc(S(=O)(=O)N2CCOCC2)cc1` [Compound 34, N-[4-(Morpholine-4-sulfonyl)-phenyl]-2-(4-oxo-4H-quinazolin-3-yl)-acetamide] is below 4.60; for `CCCCN(C)S(=O)(=O)c1ccc(NC(=O)Cn2cnc3ccccc3c2=O)cc1` [Compound 35, N-[4-(Butyl-methyl-sulfamoyl)-phenyl]-2-(4-oxo-4H-quinazolin-3-yl)-acetamide] it is below 4.60. The figure for `CN(Cc1ccccc1)S(=O)(=O)c1ccc(NC(=O)Cn2cnc3ccccc3c2=O)cc1` [Compound 36, N-[4-(Benzyl-methyl-sulfamoyl)-phenyl]-2-(4-oxo-4H-quinazolin-3-yl)-acetamide] is below 4.60; for `CC1CCCCN1S(=O)(=O)c1ccc(NC(=O)Cn2cnc3ccccc3c2=O)cc1` (stereo not shown) [Compound 37, N-[4-(2-Methyl-piperidine-1-sulfonyl)-phenyl]-2-(4-oxo-4H-quinazolin-3-yl)-acetamide] it is below 4.60; for `NS(=O)(=O)c1ccc(NC(=O)Cn2cnc3ccccc3c2=O)cc1` [Compound 38, 2-(4-Oxo-4H-quinazolin-3-yl)-N-(4-sulfamoyl-phenyl)-acetamide] it is below 4.60. Regarding `O=C(Cn1cnc2ccccc2c1=O)Nc1ccc(S(=O)(=O)Nc2ncccn2)cc1` [Compound 39, 2-(4-Oxo-4H-quinazolin-3-yl)-N-[4-(pyrimidin-2-ylsulfamoyl)-phenyl]-acetamide], the pEC50 was below 4.60.

Take `O=C(Cn1cnc2ccccc2c1=O)Nc1ccc(S(=O)(=O)NCCCN2CCOCC2)cc1` [Compound 40, N-[4-(3-Morpholin-4-yl-propylsulfamoyl)-phenyl]-2-(4-oxo-4H-quinazolin-3-yl)-acetamide]: the pEC50 was below 4.60. Then `O=C(Cn1cnc2ccccc2c1=O)Nc1ccc(S(=O)(=O)NCc2ccco2)cc1` [Compound 41, N-{4-[(Furan-2-ylmethyl)-sulfamoyl]-phenyl}-2-(4-oxo-4H-quinazolin-3-yl)-acetamide], with below 4.60; and `CC(C)N(C)S(=O)(=O)c1ccc(NC(=O)Cn2cnc3ccccc3c2=O)cc1` [Compound 42, N-[4-(Isopropyl-methyl-sulfamoyl)-phenyl]-2-(4-oxo-4H-quinazolin-3-yl)-acetamide], with below 4.60; and `CC(NS(=O)(=O)c1ccc(NC(=O)Cn2cnc3ccccc3c2=O)cc1)C1CC2CCC1C2` (stereo not shown) [Compound 43, N-[4-(1-Bicyclo[2.2.1]hept-2-yl-ethylsulfamoyl)-phenyl]-2-(4-oxo-4H-quinazolin-3-yl)-acetamide], with below 4.60.

In the case of `CC(C)NS(=O)(=O)c1ccc(NC(=O)Cn2cnc3ccccc3c2=O)cc1` [Compound 44, N-(4-Isopropyl-sulfamoyl-phenyl)-2-(4-oxo-4H-quinazolin-3-yl)-acetamide], the pEC50 was below 4.60.

As to `CN1CCN(S(=O)(=O)c2ccc(NC(=O)Cn3cnc4ccccc4c3=O)cc2)CC1` [Compound 45, N-[4-(4-Methyl-piperazine-1-sulfonyl)-phenyl]-2-(4-oxo-4H-quinazolin-3-yl)-acetamide], the pEC50 is below 4.60. The figure for `CNS(=O)(=O)c1ccc(NC(=O)Cn2cnc3ccccc3c2=O)cc1` [Compound 46, N-(4-Methylsulfamoyl-phenyl)-2-(4-oxo-4H-quinazolin-3-yl)-acetamide] is below 4.60.

With `CC1CCN(S(=O)(=O)c2ccc(NC(=O)Cn3cnc4ccccc4c3=O)cc2)CC1` [Compound 47, N-[4-(4-Methyl-piperidine-1-sulfonyl)-phenyl]-2-(4-oxo-4H-quinazolin-3-yl)-acetamide], the negative-log EC50 (pEC50) is below 4.60. Then `O=C(Cn1cnc2ccccc2c1=O)Nc1ccc(S(=O)(=O)NC2CCS(=O)(=O)C2)cc1` (stereo not shown) [Compound 48, N-[4-(1,1-Dioxo-tetrahydro-1lambda*6*- thiophen-3-ylsulfamoyl)-phenyl]-2-(4-oxo-4H-quinazolin-3-yl)-acetamide], with below 4.60; and `CN(C1CCCCC1)S(=O)(=O)c1ccc(NC(=O)Cn2cnc3ccccc3c2=O)cc1` [Compound 49, N-[4-(Cyclohexyl-methyl-sulfamoyl)-phenyl]-2-(4-oxo-4H-quinazolin-3-yl)-acetamide], with below 4.60; and `CN(C)S(=O)(=O)c1ccc(NC(=O)Cn2cnc3ccccc3c2=O)cc1` [Compound 50, N-(4-Dimethylsulfamoyl-phenyl)-2-(4-oxo-4H-quinazolin-3-yl)-acetamide], with below 4.60. Take `O=C(Cn1cnc2ccccc2c1=O)Nc1ccc(S(=O)(=O)N2CCCCCC2)cc1` [Compound 51, N-[4-(Azepane-1-sulfonyl)-phenyl]-2-(4-oxo-4H-quinazolin-3-yl)-acetamide]: the pEC50 was below 4.60. Take `O=C(Cn1cnc2ccccc2c1=O)Nc1ccc(S(=O)(=O)N2CCCCC2)cc1` [Compound 52, 2-(4-Oxo-4H-quinazolin-3-yl)-N-[4-(piperidine-1-sulfonyl)-phenyl]-acetamide]: the pEC50 is below 4.60. Then `CC1CCCN(S(=O)(=O)c2ccc(NC(=O)Cn3cnc4ccccc4c3=O)cc2)C1` (stereo not shown) [Compound 53, N-[4-(3-Methyl-piperidine-1-sulfonyl)-phenyl]-2-(4-oxo-4H-quinazolin-3-yl)-acetamide], with below 4.60; and `COC(=O)CNS(=O)(=O)c1ccc(NC(=O)Cn2cnc3ccccc3c2=O)cc1` [Compound 54, {4-[2-(4-Oxo-4H-quinazolin-3-yl)-acetylamino]-benzene-sulfonylamino}-acetic acid methyl ester], with below 4.60.

For the molecule `CC(C)(C)NS(=O)(=O)c1cccc(NC(=O)Cn2cnc3ccccc3c2=O)c1` [Compound 55, N-(3-tert-Butylsulfamoyl-phenyl)-2-(4-oxo-4H-quinazolin-3-yl)-acetamide], the pEC50 is below 4.60. Then `CCN(CC)S(=O)(=O)c1ccc(NC(=O)Cn2cnc3sc(-c4ccccc4)cc3c2=O)cc1` [Compound 56, N-(4-Diethylsulfamoyl-phenyl)-2-(4-oxo-6-phenyl-4H-thieno[2,3-d]pyrimidin-3-yl)-acetamide], with below 4.60; and `CCN(CC)S(=O)(=O)c1ccc(NC(=O)Cn2cnc3cc(F)ccc3c2=O)cc1` [Compound 57, N-(4-Diethylsulfamoyl-phenyl)-2-(7-fluoro-4-oxo-4H-quinazolin-3-yl)-acetamide], with below 4.60; and `CCN(CC)S(=O)(=O)c1ccc(NC(=O)Cn2cnc3cc(OC)c(OC)cc3c2=O)cc1` [Compound 58, N-(4-Diethylsulfamoyl-phenyl)-2-(6,7-dimethoxy-4-oxo-4H-quinazolin-3-yl)-acetamicle], with below 4.60. The figure for `CCN(CC)S(=O)(=O)c1ccc(NC(=O)Cn2cnc3scc(-c4ccccc4)c3c2=O)cc1` [Compound 59, N-(4-Diethylsulfamoyl-phenyl)-2-(4-oxo-5-phenyl-4H-thieno[2,3-d]pyrimidin-3-yl)-acetamide] is below 4.60.

`CCN(CC)S(=O)(=O)c1ccc(NC(=O)Cn2cnc3cc(NC)c([N+](=O)[O-])cc3c2=O)cc1` [Compound 60, N-(4-Diethylsulfamoyl-phenyl)-2-(7-methylamino-6-nitro-4-oxo-4H-quinazolin-3-yl)-acetamide]: the pEC50 is below 4.60. The figure for `CCN(CC)S(=O)(=O)c1ccc(NC(=O)Cn2cnc3cc(-c4ccc(OC)cc4)sc3c2=O)cc1` [Compound 61, N-(4-Diethylsulfamoyl-phenyl)-2-[6-(4-methoxy-phenyl)-4-oxo-4H-thieno[3,2-d]pyrimidin-3-yl]-acetamide] is below 4.60; for `Cc1cccc2c(=O)n(CC(=O)Nc3ccc(S(=O)(=O)N(C)C)cc3)cnc12` [Compound 62, N-(4-Dimethylsulfamoyl-phenyl)-2-(8-methyl-4-oxo-4H-quinazolin-3-yl)-acetamide] it is below 4.60; for `CCN(CC)S(=O)(=O)c1ccc(NC(=O)CNC(=O)c2cc(C)cc(C)c2)cc1` [Compound 63, N-[(4-Diethylsulfamoyl-phenylcarbamoyl)-methyl]-3,5-dimethyl-benzamide] it is below 4.60. For `CCN(CC)S(=O)(=O)c1ccc(NC(=O)CSc2nc3ccccc3c(=O)n2CC)cc1` [Compound 64, N-(4-Diethylsulfamoyl-phenyl)-2-(3-ethyl-4-oxo-3,4-dihydro-quinazolin-2-ylsulfanyl)-acetamide], the pEC50 was below 4.60.
